Consider 28 molecules from patent publication US20230365592A1 (Agios Pharmaceuticals, Inc., priority 2022, published 2023).

The AC50 is the concentration at which the activity in the assay is half-maximal.

In the first test the target is T1, human PAH with the R408W mutation (Homo sapiens, UniProt P00439, R408W).
T1 construct: expressed in transfected cells
T1 sequence (P00439 1-452 R408W): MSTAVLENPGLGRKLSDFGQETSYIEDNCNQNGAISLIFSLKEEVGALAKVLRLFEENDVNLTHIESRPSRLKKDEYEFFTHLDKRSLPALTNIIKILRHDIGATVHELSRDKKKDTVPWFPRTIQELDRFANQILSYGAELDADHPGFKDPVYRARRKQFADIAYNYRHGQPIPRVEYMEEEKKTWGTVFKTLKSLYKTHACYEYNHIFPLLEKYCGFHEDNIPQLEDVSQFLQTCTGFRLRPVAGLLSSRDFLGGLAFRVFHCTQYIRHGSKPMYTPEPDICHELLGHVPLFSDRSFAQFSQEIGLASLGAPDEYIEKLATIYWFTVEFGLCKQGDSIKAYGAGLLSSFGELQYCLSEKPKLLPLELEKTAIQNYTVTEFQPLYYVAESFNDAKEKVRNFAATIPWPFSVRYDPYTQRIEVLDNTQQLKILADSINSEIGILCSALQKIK
The test can be described thus: Cell Based Phenylalanine Flux Assay.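 Note: after compound treatment, cells received sepiapterin plus isotope-labelled Phenylalanine for 4 hours, then labelled Tyrosine in the medium was quantified, 10-point 2-fold dilution series run in duplicate.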 As to conditions: A375 cells expressing R408W PAH; 24 hrs with compound, then 20 µM sepiapterin and 800 µM 13C9,15N-Phenylalanine for 4 hours; 13C-Tyrosine by LC-MS; average where tested multiple times; read-out: AC50.
For the molecule `Cc1nc(C(=O)N2CCc3[nH]cnc3C2c2cc3ccccn3n2)n(C)n1` (stereo not shown), the AC50 is 1000 to 5000 nM.
Take `O=C(c1nnc(-c2ccccn2)o1)N1CCCc2[nH]cnc2C1c1cc2ccccn2n1` (stereo not shown): the AC50 was more than 5000 nM.
On to `Cc1nc(-c2ccccn2)oc1C(=O)N1CCc2[nH]cnc2C1c1cc2ccccn2n1` (stereo not shown), for which the AC50 was more than 5000 nM.
In the case of `FC(F)(F)c1cccn2nc(C3c4nc[nH]c4CCN3c3nnc(N4CCOCC4)o3)cc12` (stereo not shown), the AC50 was more than 5000 nM.
As to `CC(O)c1nnc(C(=O)N2CCc3[nH]cnc3C2c2cc3ccccn3n2)o1` (stereo not shown), the AC50 is 1000 to 5000 nM.
The same measure, in the same setting: next, `O=C(c1ccnn1-c1ccccn1)N1CCc2[nH]cnc2C1c1cc2ccccn2n1` (stereo not shown): 1000 to 5000 nM.

The test is the same for the next values; noted with them: A375 cells expressing human PAH R408W; 24 hrs compound incubation; 13C-Tyrosine by LC-MS; average where tested multiple times; read-out: AC50.
As to `O=C(c1oc(-c2ccccn2)nc1C1CC1)N1CCc2[nH]cnc2[C@@H]1c1cc2c(C(F)F)cccn2n1` [Example 2123, (R)-(4-cyclopropyl-2-(pyridin-2-yl)oxazol-5-yl)(4-(4-(difluoromethyl)pyrazolo[1,5-a]pyridin-2-yl)-1,4,6,7-tetrahydro-5H-imidazo[4,5-c]pyridin-5-yl)methanone], the AC50 was in the range of 1000 to 5000 nM.
`FC(F)(F)c1nnc(N2CCc3[nH]cnc3[C@H]2c2cc3c(C4CC4)cccn3n2)o1` [Example 2057, (S)-2-(4-(4-cyclopropylpyrazolo[1,5-a]pyridin-2-yl)-1,4,6,7-tetrahydro-5H-imidazo[4,5-c]pyridin-5-yl)-5-(trifluoromethyl)-1,3,4-oxadiazole]: the AC50 was less than 500 nM.
Same read-out and setting: to `Cc1cccnc1-c1nnc(N2CCc3[nH]cnc3[C@@H]2c2cc3ccccn3n2)o1` [Example 2266, (R)-2-(3-methylpyridin-2-yl)-5-(4-(pyrazolo[1,5-a]pyridin-2-yl)-1,4,6,7-tetrahydro-5H-imidazo[4,5-c]pyridin-5-yl)-1,3,4-oxadiazole] belongs more than 5000 nM; to `O=C(c1nnc(-c2ccn(C(F)(F)F)n2)o1)N1CCc2[nH]cnc2[C@H]1c1cc2c(C3CC3)cccn2n1` [Example 1880, (S)-(4-(4-cyclopropylpyrazolo[1,5-a]pyridin-2-yl)-1,4,6,7-tetrahydro-5H-imidazo[4,5-c]pyridin-5-yl)(5-(1-(trifluoromethyl)-1H-pyrazol-3-yl)-1,3,4-oxadiazol-2-yl)methanone], less than 500 nM.
Take `FC(F)(F)c1cccn2nc([C@@H]3c4nc[nH]c4CCN3c3nnc(-c4cnccn4)o3)cc12` [Example 2510, (S)-2-(pyrazin-2-yl)-5-(4-(4-(trifluoromethyl)pyrazolo[1,5-a]pyridin-2-yl)-1,4,6,7-tetrahydro-5H-imidazo[4,5-c]pyridin-5-yl)-1,3,4-oxadiazole]: the AC50 lay within 1000 to 5000 nM.
For the molecule `Cc1cccn2nc([C@@H]3c4nc[nH]c4CCN3c3nnc(-c4ccc(F)cc4)o3)cc12` [Example 1891, (S)-2-(4-fluorophenyl)-5-(4-(4-methylpyrazolo[1,5-a]pyridin-2-yl)-1,4,6,7-tetrahydro-5H-imidazo[4,5-c]pyridin-5-yl)-1,3,4-oxadiazole], the AC50 is less than 500 nM.
Turning to `Cc1ccn2nc([C@@H]3c4nc[nH]c4CCN3C(=O)c3nnc(-c4ccccn4)o3)cc2c1` [Example 2384, (S)-(4-(5-methylpyrazolo[1,5-a]pyridin-2-yl)-6,7-dihydro-1H-imidazo[4,5-c]pyridin-5(4H)-yl)(5-(pyridin-2-yl)-1,3,4-oxadiazol-2-yl)methanone], the AC50 fell in the range of 1000 to 5000 nM.
For the molecule `Cc1cccnc1-c1nnc(N2CCc3[nH]cnc3[C@@H]2c2cc3c(C(F)(F)F)cccn3n2)o1` [Example 2277, (R)-2-(3-methylpyridin-2-yl)-5-(4-(4-(trifluoromethyl)pyrazolo[1,5-a]pyridin-2-yl)-1,4,6,7-tetrahydro-5H-imidazo[4,5-c]pyridin-5-yl)-1,3,4-oxadiazole], the AC50 is more than 5000 nM.

Still in this test, the particulars now being: A375 cells expressing human R408W PAH; 24 hrs compound incubation; 13C-Tyrosine by LC-MS; average where tested multiple times; read-out: AC50.
Turning to `Cc1cccc2cc([C@@H]3c4nc[nH]c4CCN3C(=O)c3cnn4cc(N(C)C)ccc34)nn12` [Example 1794, (S)-(6-(dimethylamino)pyrazolo[1,5-a]pyridin-3-yl)(4-(7-methylpyrazolo[1,5-a]pyridin-2-yl)-6,7-dihydro-1H-imidazo[4,5-c]pyridin-5(4H)-yl)methanone], the AC50 fell in the range of 500 to 1000 nM.
Take `Cc1nc(C(C)(C)F)oc1C(=O)N1CCc2[nH]cnc2[C@@H]1c1cc2c(Cl)cccn2n1` [Example 1277, (R)-(4-(4-chloropyrazolo[1,5-a]pyridin-2-yl)-6,7-dihydro-1H-imidazo[4,5-c]pyridin-5(4H)-yl)(2-(2-fluoropropan-2-yl)-4-methyloxazol-5-yl)methanone]: the AC50 was less than 500 nM.
`Cc1ncccc1-c1nnc(C(=O)N2CCc3[nH]cnc3[C@H]2c2cc3cccc(F)n3n2)o1` [Example 1494, (S)-(4-(7-fluoropyrazolo[1,5-a]pyridin-2-yl)-6,7-dihydro-1H-imidazo[4,5-c]pyridin-5(4H)-yl)(5-(2-methylpyridin-3-yl)-1,3,4-oxadiazol-2-yl)methanone]: the AC50 is less than 500 nM.
Turning to `Cc1cccn2nc([C@@H]3c4nc[nH]c4CCN3C(=O)c3nnc(C4CCC4)o3)cc12` [Example 1556, (S)-(5-cyclobutyl-1,3,4-oxadiazol-2-yl)(4-(4-methylpyrazolo[1,5-a]pyridin-2-yl)-6,7-dihydro-1H-imidazo[4,5-c]pyridin-5(4H)-yl)methanone], the AC50 was less than 500 nM.
As for `O=C(c1nnc(-c2ncccc2F)o1)N1CCc2[nH]cnc2[C@H]1c1cc2cccc(C(F)F)n2n1` [Example 1580, (S)-(4-(7-(difluoromethyl)pyrazolo[1,5-a]pyridin-2-yl)-6,7-dihydro-1H-imidazo[4,5-c]pyridin-5(4H)-yl)(5-(3-fluoropyridin-2-yl)-1,3,4-oxadiazol-2-yl)methanone], the AC50 was less than 500 nM.
Take `CC(C)(F)c1nc(C(F)F)c(C(=O)N2CCc3[nH]cnc3[C@H]2c2cc3ccccn3n2)o1` [Example 1255, (S)-(4-(difluoromethyl)-2-(2-fluoropropan-2-yl)oxazol-5-yl)(4-(pyrazolo[1,5-a]pyridin-2-yl)-6,7-dihydro-1H-imidazo[4,5-c]pyridin-5(4H)-yl)methanone]: the AC50 is less than 500 nM.
For `O=C(c1nnc(-c2ccccn2)o1)N1CCc2[nH]cnc2[C@H]1c1cc2c(OC(F)(F)F)cccn2n1` [Example 1760, (S)-(5-(pyridin-2-yl)-1,3,4-oxadiazol-2-yl)(4-(4-(trifluoromethoxy)pyrazolo[1,5-a]pyridin-2-yl)-6,7-dihydro-1H-imidazo[4,5-c]pyridin-5(4H)-yl)methanone], the AC50 was less than 500 nM.
`CC(C)(C)c1nnc(C(=O)N2CCc3[nH]cnc3[C@H]2c2cc3c(C(F)(F)F)cccn3n2)o1` [Example 948, (S)-(5-(tert-butyl)-1,3,4-oxadiazol-2-yl)(4-(4-(trifluoromethyl)pyrazolo[1,5-a]pyridin-2-yl)-6,7-dihydro-1H-imidazo[4,5-c]pyridin-5(4H)-yl)methanone]: the AC50 is less than 500 nM.
For `C[C@@H](O)c1nc(C(F)F)c(C(=O)N2CCc3[nH]cnc3[C@@H]2c2cc3c(Cl)cccn3n2)o1` [Example 703, ((R)-4-(4-chloropyrazolo[1,5-a]pyridin-2-yl)-6,7-dihydro-1H-imidazo[4.5-c]pyridin-5(4H)-yl)(4-(difluoromethyl)-2-((R)-1-hydroxyethyl)oxazol-5-yl)methanone], the AC50 fell in the range of 1000 to 5000 nM.
The same measure, in the same setting: to `Cc1ncoc1C(=O)N1CCc2[nH]cnc2[C@H]1c1cc2ccccn2n1` [Example 606, (S)-(4-methyloxazol-5-yl)(4-(pyrazolo[1,5-a]pyridin-2-yl)-6,7-dihydro-1H-imidazo[4,5-c]pyridin-5(4H)-yl)methanone] belongs less than 500 nM; to `O=C(c1nnc(C2CCC2)o1)N1CCc2[nH]cnc2[C@H]1c1cc2c(F)cccn2n1` [Example 1559, (S)-(5-cyclobutyl-1,3,4-oxadiazol-2-yl)(4-(4-fluoropyrazolo[1,5-a]pyridin-2-yl)-6,7-dihydro-1H-imidazo[4,5-c]pyridin-5(4H)-yl)methanone], less than 500 nM; to `O=C(c1nnc(-c2ccn(C(F)(F)F)n2)o1)N1CCc2[nH]cnc2[C@H]1c1cc2cccc(C(F)F)n2n1` [Example 1544, (S)-(4-(7-(difluoromethyl)pyrazolo[1,5-a]pyridin-2-yl)-6,7-dihydro-1H-imidazo[4,5-c]pyridin-5(4H)-yl)(5-(1-(trifluoromethyl)-1H-pyrazol-3-yl)-1,3,4-oxadiazol-2-yl)methanone], less than 500 nM.
For `CC(C)(F)c1nc(C(F)F)c(C(=O)N2CCc3[nH]cnc3[C@@H]2c2cc3ccccn3n2)o1` [Example 1254, (R)-(4-(difluoromethyl)-2-(2-fluoropropan-2-yl)oxazol-5-yl)(4-(pyrazolo[1,5-a]pyridin-2-yl)-6,7-dihydro-1H-imidazo[4,5-c]pyridin-5(4H)-yl)methanone], the AC50 is 1000 to 5000 nM.
As for `Cn1nc(C2CC2)nc1C(=O)N1CCc2[nH]cnc2[C@H]1c1cc2c(Cl)cccn2n1` [Example 1072, (S)-(4-(4-chloropyrazolo[1,5-a]pyridin-2-yl)-6,7-dihydro-1H-imidazo[4,5-c]pyridin-5(4H)-yl)(3-cyclopropyl-1-methyl-1H-1,2,4-triazol-5-yl)methanone], the AC50 lay within 500 to 1000 nM.
